In patent US11214803B2, “Modulators of YAP1 expression” (Ionis Pharmaceuticals, Inc., priority 2019, dated 2022):
Strand notation (5' to 3'): a small letter for the sugar, then the base; units joined by * are phosphorothioate-linked, units joined directly phosphodiester-linked; [ ] holds rarer units or linkages, { } end groups; capitals alone tell only the bases. k = constrained ethyl (cEt); [5mC] = 5-methylcytosine; d = 2'-deoxy (DNA)

These substances were tested on Yap1 mRNA (assay: Antisense inhibition of human Yap1 in A-431 cells by cEt gapmers, single dose (Example 1, RTS4814)). Settings: A-431 cells, 5,000 cells per well, free uptake, 2,000 nM modified oligonucleotide, approx. 48 hours, RTS4814, normalized to RIBOGREEN; Table 3.
Assay type: cell-based
Protocol: Modified oligonucleotides were designed to target a Yap1 nucleic acid and were tested for their effect on Yap1 mRNA level in vitro. The modified oligonucleotides were tested in a series of experiments that had similar culture conditions. Cultured A-431 cells at a density of 5,000 cells per well were treated using free uptake with 2,000 nM of modified oligonucleotide. After a treatment period of approximately 48 hours, RNA was isolated from the cells and Yap1 mRNA levels were measured by quantitative real-time RTPCR. Human primer probe set RTS4814 (forward sequence […], designated herein as SEQ ID NO.: 11; reverse sequence […], designated herein as SEQ ID NO.: 12; probe sequence […], designated herein as SEQ ID NO.: 13) was used to measure mRNA levels. Yap1 mRNA levels were normalized to total RNA content, as measured by RIBOGREEN®. Results are presented in the tables below as percent control of the amount of Yap1 mRNA relative to untreated control cells (% UTC). The modified oligonucleotides with percent control values marked with an asterisk (*) target the amplicon region of the primer probe set. Additional assays may be used to measure the potency and efficacy of the modified oligonucleotides targeting the amplicon region.
The newly designed modified oligonucleotides in the Tables below were designed as 3-10-3 cEt gapmers. The gapmers are 16 nucleosides in length, wherein the central gap segment comprises of ten 2′-deoxynucleosides and is flanked by wing segments on the 5′ direction and the 3′ direction comprising three nucleosides each. Each nucleoside in the 5′ wing segment and each nucleoside in the 3′ wing segment has a cEt sugar modification. The internucleoside linkages throughout each gapmer are phosphorothioate (P═S) linkages. All cytosine residues throughout each gapmer are 5-methylcytosines.
“Start site” indicates the 5′-most nucleoside to which the gapmer is targeted in the human gene sequence. “Stop site” indicates the 3′-most nucleoside to which the gapmer is targeted human gene sequence. […] Activity of the modified oligonucleotide may be defined in a different experiment.
For “715474 (antisense k[5mC]*kT*kT*dT*d[5mC]*dT*dT*dT*dA*dT*d[5mC]*dT*dA*kG*k[5mC]*kT) [Compound 715474]”, the “YAP1 (% UTC)” value was 78 % UTC.
“715510 (antisense kA*kT*kT*dT*dG*d[5mC]*dT*dG*dT*dG*d[5mC]*dT*dG*kG*kG*kA) [Compound 715510]” was tested, and the “YAP1 (% UTC)” value was 22 % UTC.
With “715537 (kA*k[5mC]*kT*dT*dG*dG*d[5mC]*dA*d[5mC]*d[5mC]*dA*dA*dA*kA*kG*k[5mC]; antisense) [Compound 715537]” the “YAP1 (% UTC)” value was 122 % UTC.
In the case of “715624 (antisense kT*kG*k[5mC]*d[5mC]*dT*dA*dA*dG*dA*dG*dT*dA*dA*kA*kA*kA) [Compound 715624]”, the “YAP1 (% UTC)” value is reported as 123 % UTC.
In the case of “715405 (kT*kG*kA*dA*dG*dA*dA*dG*dG*dA*dG*dT*d[5mC]*kG*kG*kG; antisense) [Compound 715405]”, the “YAP1 (% UTC)” value is reported as 60 % UTC.
For “715462 (antisense kT*k[5mC]*kT*d[5mC]*dA*dT*d[5mC]*dT*d[5mC]*dG*dA*dG*dA*kG*kT*kG) [Compound 715462]”, the “YAP1 (% UTC)” value was 94 % UTC.
With “715438 (antisense kT*kT*k[5mC]*dA*dT*dG*dG*d[5mC]*dA*dA*dA*dA*d[5mC]*kG*kA*kG) [Compound 715438]” the “YAP1 (% UTC)” value was 82 % UTC.
With “715492 (antisense kG*k[5mC]*kT*dA*dG*d[5mC]*dT*dG*dG*dT*dG*d[5mC]*d[5mC]*kA*k[5mC]*kT) [Compound 715492]” the “YAP1 (% UTC)” value was 76 % UTC.
In the case of “715588 (kA*kG*k[5mC]*dA*dG*d[5mC]*dT*dA*dA*d[5mC]*dA*dG*d[5mC]*kT*kT*kG; antisense) [Compound 715588]”, the “YAP1 (% UTC)” value is reported as 96 % UTC.
In the case of “715423 (k[5mC]*k[5mC]*kA*dT*dG*dT*dT*dG*dT*dT*dG*dT*d[5mC]*kT*kG*kA; antisense) [Compound 715423]”, the “YAP1 (% UTC)” value is reported as 30 % UTC.
For “715468 (antisense kG*k[5mC]*kT*dT*dG*dG*dT*dG*dG*d[5mC]*dA*dG*d[5mC]*k[5mC]*kA*kA) [Compound 715468]”, the “YAP1 (% UTC)” value was 90 % UTC.
“715447 (antisense k[5mC]*kA*kA*dT*dT*d[5mC]*d[5mC]*dT*dG*dA*dG*dA*d[5mC]*kA*kT*k[5mC]) [Compound 715447]” was tested, and the “YAP1 (% UTC)” value was 81 % UTC.
“715534 (kT*k[5mC]*k[5mC]*d[5mC]*d[5mC]*dA*dG*dG*dT*d[5mC]*dA*dG*d[5mC]*kA*kT*kG; antisense) [Compound 715534]” was tested, and the “YAP1 (% UTC)” value was 112 % UTC.
In the case of “715525 (kT*kT*kA*d[5mC]*dT*dT*dT*dA*dA*dG*dA*dA*dG*kT*kA*kT; antisense) [Compound 715525]”, the “YAP1 (% UTC)” value is reported as 100 % UTC.
In the case of “715456 (antisense kA*kG*kT*dG*dA*dT*dA*dG*dG*dT*dG*d[5mC]*d[5mC]*kA*k[5mC]*kT) [Compound 715456]”, the “YAP1 (% UTC)” value is reported as 96 % UTC.

Same assay, conditions: Table 1; A-431 cells, free uptake, 2,000 nM, approximately 48 hours, RTS4814; Yap1 mRNA relative to untreated control cells
For “715544 (k[5mC]*kA*kA*d[5mC]*dT*dA*d[5mC]*dT*dT*dG*dA*dA*dG*kA*kA*k[5mC]; antisense) [Compound 715544]”, the “YAP1 (% UTC)” value was 128 % UTC.
With “715400 (k[5mC]*kT*k[5mC]*d[5mC]*dG*dA*dG*dT*d[5mC]*d[5mC]*d[5mC]*d[5mC]*dG*k[5mC]*kG*kG; antisense) [Compound 715400]” the “YAP1 (% UTC)” value was 107 % UTC.
“715514 (kG*kA*kG*d[5mC]*dG*dA*dA*dG*dG*dT*dG*d[5mC]*dG*kG*kA*kG; antisense) [Compound 715514]” was tested, and the “YAP1 (% UTC)” value was 121 % UTC.
“715610 (antisense kG*kG*k[5mC]*dT*dG*dT*dG*dT*dA*dG*dG*d[5mC]*dT*kG*kA*k[5mC]) [Compound 715610]” was tested, and the “YAP1 (% UTC)” value was 87 % UTC.
With “715556 (kA*kA*kG*dT*dT*dA*dT*dT*d[5mC]*dA*dG*d[5mC]*dA*kG*k[5mC]*kT; antisense) [Compound 715556]” the “YAP1 (% UTC)” value was 63 % UTC.
In the case of “715583 (kG*kG*kG*d[5mC]*d[5mC]*dA*d[5mC]*dA*dA*dA*dA*dT*dA*kA*kA*kA; antisense) [Compound 715583]”, the “YAP1 (% UTC)” value is reported as 164 % UTC.
“715619 (antisense kA*kA*kA*dT*dA*dA*dG*dA*d[5mC]*dG*dG*dA*dT*kA*kA*kA) [Compound 715619]” was tested, and the “YAP1 (% UTC)” value was 114 % UTC.
With “715472 (antisense kT*kT*kT*dA*dT*d[5mC]*dT*dA*dG*d[5mC]*dT*dT*dG*kG*kT*kG) [Compound 715472]” the “YAP1 (% UTC)” value was 52 % UTC.
In the case of “715613 (antisense kA*kT*kT*dA*d[5mC]*dT*dT*dT*dA*dA*dG*d[5mC]*d[5mC]*kA*k[5mC]*kA) [Compound 715613]”, the “YAP1 (% UTC)” value is reported as 85 % UTC.
“715481 (antisense kT*kT*kG*dG*dA*dA*dA*d[5mC]*d[5mC]*dA*dT*dT*dA*kT*kT*kA) [Compound 715481]” was tested, and the “YAP1 (% UTC)” value was 66 % UTC.
“715403 (kG*kA*kA*dG*dG*dA*dG*dT*d[5mC]*dG*dG*dG*d[5mC]*kA*kG*k[5mC]; antisense) [Compound 715403]” was tested, and the “YAP1 (% UTC)” value was 72 % UTC.
With “715616 (antisense kG*kA*k[5mC]*dG*dG*dA*dT*dA*dA*dA*dA*dA*dT*kT*kA*k[5mC]) [Compound 715616]” the “YAP1 (% UTC)” value was 95 % UTC.
With “715592 (kT*kT*k[5mC]*dT*dT*dT*dG*dG*d[5mC]*dA*dG*dA*dG*kA*kT*kA; antisense) [Compound 715592]” the “YAP1 (% UTC)” value was 89 % UTC.
For “715568 (kA*kA*kG*dG*dT*dA*dG*dG*dA*dT*dA*dA*dA*kT*kG*kA; antisense) [Compound 715568]”, the “YAP1 (% UTC)” value was 116 % UTC.
“715529 (kT*kG*kA*dA*dA*d[5mC]*d[5mC]*dT*dG*dA*dT*d[5mC]*d[5mC]*kT*kT*kT; antisense) [Compound 715529]” was tested, and the “YAP1 (% UTC)” value was 148 % UTC.
In the case of “715595 (antisense kT*k[5mC]*kA*dT*dG*dG*d[5mC]*dT*dG*dA*dA*dA*dT*kG*kA*kA) [Compound 715595]”, the “YAP1 (% UTC)” value is reported as 104 % UTC.
“715574 (kT*kA*k[5mC]*d[5mC]*dA*dA*dA*dA*d[5mC]*dG*dA*dG*dG*kG*kT*k[5mC]; antisense) [Compound 715574]” was tested, and the “YAP1 (% UTC)” value was 118 % UTC.
In the case of “715406 (k[5mC]*kT*kT*dG*dA*dA*dG*dA*dA*dG*dG*dA*dG*kT*k[5mC]*kG; antisense) [Compound 715406]”, the “YAP1 (% UTC)” value is reported as 58 % UTC.
With “715445 (antisense k[5mC]*kA*kT*d[5mC]*d[5mC]*dT*dG*d[5mC]*dT*d[5mC]*d[5mC]*dA*dG*kT*kG*kT) [Compound 715445]” the “YAP1 (% UTC)” value was 87 % UTC.
“715625 (antisense kA*kT*kT*dG*d[5mC]*d[5mC]*dT*dA*dA*dG*dA*dG*dT*kA*kA*kA) [Compound 715625]” was tested, and the “YAP1 (% UTC)” value was 99 % UTC.
With “715469 (antisense kT*kA*kG*d[5mC]*dT*dT*dG*dG*dT*dG*dG*d[5mC]*dA*kG*k[5mC]*k[5mC]) [Compound 715469]” the “YAP1 (% UTC)” value was 94 % UTC.

Same assay, conditions: Table 2; A-431 cells, free uptake, 2,000 nM, approximately 48 hours, RTS4814; Yap1 mRNA relative to untreated control cells
With “715494 (antisense kG*kA*kG*dG*dT*dG*d[5mC]*dT*dA*dG*d[5mC]*dT*dG*kG*kT*kG) [Compound 715494]” the “YAP1 (% UTC)” value was 46 % UTC.
In the case of “715623 (antisense k[5mC]*k[5mC]*kT*dA*dA*dG*dA*dG*dT*dA*dA*dA*dA*kA*kA*kT) [Compound 715623]”, the “YAP1 (% UTC)” value is reported as 113 % UTC.
For “715521 (kT*k[5mC]*kT*dT*d[5mC]*dT*dT*dT*d[5mC]*d[5mC]*dA*d[5mC]*dT*k[5mC]*kA*kA; antisense) [Compound 715521]”, the “YAP1 (% UTC)” value was 72 % UTC.
In the case of “715404 (kA*kA*kG*dA*dA*dG*dG*dA*dG*dT*d[5mC]*dG*dG*kG*k[5mC]*kA; antisense) [Compound 715404]”, the “YAP1 (% UTC)” value is reported as 64 % UTC.
With “715563 (kA*kG*k[5mC]*dA*d[5mC]*dA*d[5mC]*dA*dA*d[5mC]*dT*d[5mC]*dA*kG*kA*k[5mC]; antisense) [Compound 715563]” the “YAP1 (% UTC)” value was 86 % UTC.
For “715446 (antisense kA*kT*kT*d[5mC]*d[5mC]*dT*dG*dA*dG*dA*d[5mC]*dA*dT*k[5mC]*k[5mC]*k[5mC]) [Compound 715446]”, the “YAP1 (% UTC)” value was 81 % UTC.
“715596 (antisense kG*kT*kT*d[5mC]*dA*dT*dG*dG*d[5mC]*dT*dG*dA*dA*kA*kT*kG) [Compound 715596]” was tested, and the “YAP1 (% UTC)” value was 104 % UTC.
“715617 (antisense kA*kA*kG*dA*d[5mC]*dG*dG*dA*dT*dA*dA*dA*dA*kA*kT*kT) [Compound 715617]” was tested, and the “YAP1 (% UTC)” value was 98 % UTC.
For “715479 (antisense kA*kA*kA*d[5mC]*d[5mC]*dA*dT*dT*dA*dT*dT*dA*d[5mC]*kT*k[5mC]*k[5mC]) [Compound 715479]”, the “YAP1 (% UTC)” value was 38 % UTC.
With “715548 (kA*kG*kT*dT*dG*dT*dT*dG*dA*d[5mC]*d[5mC]*dA*dA*k[5mC]*kT*kA; antisense) [Compound 715548]” the “YAP1 (% UTC)” value was 117 % UTC.
In the case of “715524 (kA*k[5mC]*kT*dT*dT*dA*dA*dG*dA*dA*dG*dT*dA*kT*k[5mC]*kT; antisense) [Compound 715524]”, the “YAP1 (% UTC)” value is reported as 93 % UTC.
For “715455 (antisense kT*kG*kA*dT*dA*dG*dG*dT*dG*d[5mC]*d[5mC]*dA*d[5mC]*kT*kG*kT) [Compound 715455]”, the “YAP1 (% UTC)” value was 65 % UTC.
